Assays:
[1] = tested on: erbB-2 driven breast cancer cells; assay: Assay of cell proliferation (direct cell counting); format: cell-based; details: FIG. 26, read-out: IC50, cell growth inhibition
[2] = molecular target: T1, c-Met-Grb2 interaction (Mus musculus, UniProt Q60631); assay: c-Met-Grb2 co-immunoprecipitation/immunoblot in intact 32D c-met cells after HGF/NK1 stimulation; format: cell-based, murine; details: 32D c-met cells pretreated 16 h with 30 nM or 300 nM prior to HGF/NK1 stimulation
T1 construct: endogenous in cells; host or cells: murine 32D c-met cells
T1 sequence (Q60631 whole entry): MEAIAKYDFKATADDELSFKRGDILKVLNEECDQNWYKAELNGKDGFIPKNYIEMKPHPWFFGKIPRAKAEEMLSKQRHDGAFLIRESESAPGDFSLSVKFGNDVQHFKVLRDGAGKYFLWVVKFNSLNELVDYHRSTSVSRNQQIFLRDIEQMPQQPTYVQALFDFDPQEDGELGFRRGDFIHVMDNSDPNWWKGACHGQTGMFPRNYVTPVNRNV
Procedure: To characterize the time period and dose which the Grb2 SH2 domain inhibitor (antagonist) compound of formula 4 enters intact cells, the murine IL-3-dependent cell line 32D c-met was used. The effects of the inhibitor on c-Met-Grb2 interaction was examined by co-immunoprecipitation/immunoblot analysis. Cells were cultured in RPMI 1640+15% FBS and 5% WEHI-3B conditioned medium. Intact 32Dc-met cells were treated with different amount (3, 30, 300 nM) of the compound for 1, 2, 4, and 16 h, then briefly stimulated with HGF/NK1 for 10 minutes before lysis, immunoprecipitated with anti-Grb2 antibodies (Santa Cruz), and immunoblotting with anti-c-Met (Santa Cruz), or anti-Grb2 (Transduction Lab). HGF/NK1 stimulated co-immunoprecipitation of the 145 kDa c-Met beta subunit with Grb2. When cells were pretreated for 16 h with 30 nM or 300 nM compound of formula 4 prior to HGF/NK1 stimulation, the amount of HGF receptor that was co-immunoprecipitated with Grb2 was reduced by approximately 50%.

IC50 [1] [nM] | melting point | Reduction of amount of HGF receptor co-immunoprecipitated with Grb2 [2] | SMILES
< 1000 | 260 °C (dec.) |  | NC(=O)C[C@@H]1NC(=O)C2(CCCCC2)NC(=O)[C@@H](CC(=O)O)[C@@H](c2ccc(CP(=O)(O)O)cc2)/C=C/C[C@@H](Cc2cccc3ccccc23)CNC1=O [Compound 233, 2-[(9S, 10S, 14S, 18S)-7, 16, 19-triaza-18-(carbamoylmethyl)-14-(naphthylmethyl)-8,17,20-trioxo-10-[4-(phosphonomethyl)phenyl]spiro[5.14]icos-11-en-9-yl]acetic acid]
 |  | approximately 50% | NC(=O)C[C@@H]1NC(=O)C2(CCCCC2)NC(=O)C[C@@H](c2ccc(CP(=O)(O)O)cc2)C=CC[C@@H](Cc2cccc3ccccc23)CNC1=O [Compound 4a, 2-[(9S, 13S, 17R)-8, 11, 20-triaza-13-(naphthylmethyl)-7, 10, 19-trioxo-17-[4-(phosphonomethyl)phenyl]spiro[5.14]icos-15-en-9-yl]acetamide]
